# Source: patent publication US7122335B1, “Compounds and methods to enhance rAAV transduction” (priority 1999, dated 2006)
# Peptide text beside a SMILES is read from it. * marks the point of attachment. Cbz = O=C(OCc1ccccc1)*
# Assays:
# [1] = test system: primary human fibroblasts; format: cell-based; conditions: confluent fibroblasts, AV.GFP3ori MOI 1000, 96 hours post-infection; brefeldin A 10 μg/ml, vinblastine 22 μM, cytochalasin B 1 μM, NH4Cl 2 mM, chloroquine 20 μm, LLnL 400 μM, Z-LLL 4 μM
# Experimental: FIG. 6. Primary confluent fibroblasts were infected with AV.GFP3ori virus at an MOI=1000 particles/cell following treatment with brefeldin A (10 μg/ml), vinblastine (22 μM), cytochalasin B (1 μM), NH4Cl (2 mM), chloroquine (20 μm), LLnL (400 μM), and Z-LLL (4 μM), final concentration indicated in brackets. Cells were harvested at 96 hours post-infection and the transduction efficiency was compared to untreated rAAV infected cells by FACS analysis for GFP expression. To control for non-specific effects caused by toxicity of the compounds, the percentage of live cells was also assessed by the absence of propidium iodide incorporation.
# 80% confluent human primary fibroblasts were infected with AV.GFP3ori at an moi of 1000 DNA particles/cell. FIG. 16A depicts GFP transgene expression in the absence (left photographs) and presence of 40 μM LLnL (right photographs) at 96 hours post-infection. […] Top and bottom panels represent bright field and FITC-channel fluorescent photomicrographs, respectively. The mean (+/−SEM, N=3) percentage of cells transduced with rAAV, as measured by FACS sorting of GFP expressing cells, is presented in the bar graph of FIG. 16B. […] In this study, rAAV from infected cells was first immunoprecipitated with anti-VP1,2,3 (AAV-2 capsid) monoclonal antibody followed by Western blot detection of ubiquitin side chains using an anti-ubiquitin monoclonal antibody. […] Epithelia were infected with AV.GFP3ori (10,000 particles/cell) from the basolateral surface following treatment with ubiquitin ligase inhibitor dipeptides (0.2 mM H-Leu-Ala-OH and 0.2 mM H-His-Ala-OH).
# Initial studies were performed in confluent primary human fibroblasts since dose titrations and toxicity could be quickly assessed. Selected compounds were used to treat fibroblast monolayers prior to rAAV infection. rAAV transduction was assessed at 96 hours post-infection by FACS analysis, and the percentage of dead cells was simultaneously assessed by incorporation of propidium iodide.
# These tripeptides are structurally related to chloroquine but have different lipid solubility and specificity for cysteine proteases (Seglen, 1983). These molecules decrease endosomal degradation of molecules by a mechanism different than altering pH.
# Transduction of polarized airway epithelial cells and primary human fibroblasts. rAAV infection of fully differentiated bronchial cells was performed as described in Duan et al. (1998). For infections from the apical surface of the airway cells, 5 μl rAAV was mixed with 50 μl of culture media and applied directly onto the apical compartment of Millicell inserts (MOI=10,000 particles/cell). During apical infection, the basolateral side of the Millicell was continuously bathed in culture media. Gene transfer to the basal side was performed by inverting Millicell inserts and applying viral vector to the bottom of the supporting filter membrane in a 50 μl volume for 2 hours. Subsequently, Millicell inserts were returned to the upright position, in the continued presence of the original viral inoculum plus an additional 450 μl of media. For both apical and basolateral infections, rAAV containing media was removed after 24 hours and replaced with either fresh culture media (for the basal side) or exposed to air (for the apical side). To test the effect of different agents on the efficiency of AAV transduction in polarized airway cells, 1 μl of each solution was mixed with AAV prior to infection of airway epithelia. Agents were usually presented during the 24 hours AAV infection period unless indicated otherwise.
# [2] = Toxicity of proteasome inhibitors in mice, intra-tracheal and systemic (IV) delivery; format: in vivo; conditions: 10, 100 and 1000 fold higher doses than used in polarized airway cells
# Experimental: Long-term enhancement of rAAV transduction by proteasome inhibitor in vivo. To evaluate the potential utility of proteasome inhibitors for in vivo gene therapy, both the toxicity and efficacy of these agents for in vivo rAAV mediated gene transfer in the mouse lung was tested. To assess the toxicity of these proteasome inhibitors in mice, 10, 100, and 1000 fold higher effective doses of LLnL or Z-LLL were administered than used to induce gene transfer in polarized airway cells, using both intra-tracheal and systemic (IV) delivery. No toxicity was indicated by histologic evaluation of the lung and liver (data not shown) or was evidenced by the death of animals. To investigate whether these proteasome inhibitors could improve rAAV transduction in vivo, AV.LacZ (5×10^10 particles) was delivered either alone or in the presence of 400 μM Z-LLL by intranasal administration. Mouse lungs were harvested at 3, 10 and 150 days post-infection to evaluate short and long term effects. […] Targeted transgene expression was predominantly confined to the conducting airways, rather than in the parenchyma. Alveolar cells were rarely transduced. […] The range of transgene expression in distal and proximal airways was 0 to 4% and 5 to 18%, respectively.
# mouse liver = test: rAAV (AV.Alkphos) gene transfer in mouse liver in vivo, portal vein; set-up: species or system C57B6 mice
# Experimental: FIG. 19. […] Recombinant AV.Alkphos (5×10^10 particles) was administered to mouse liver either as virus alone in PBS, virus in combination with 40 μM Z-LLL in PBS, or virus in combination with 200 μM LLnL in PBS. Virus was directly instilled into portal vein of the C57B6 mice. AAV-mediated alkaline phosphatase transgene expression was evaluated by histology staining at 2 and 4 weeks post-infection in frozen tissue sections. The average percentage of the alkphos positive cells in all 6 liver lobes of each individual animal was quantified by NIH image analysis software. The data represents the mean (+/−SEM) of 3 independent mice for each time point in each group.
# Recombinant AV.Alkphos (5×10^10 particles) was also administered to mouse liver either as virus alone in PBS, virus in combination with 40 μM Z-LLL in PBS, or virus in combination with 20 μM LLnL in PBS. Virus was directly instilled into portal vein of the C57B6 mice. AAV-mediated alkaline phosphatase transgene expression was evaluated by histology staining at 2 and 4 weeks post infection in frozen tissue sections ([…]).
Molecule,rAAV transduction (GFP expression) compared to untreated rAAV infected cells [1],"toxicity (histology of lung and liver, death of animals) [2]","AAV-mediated gene transfer in mouse liver, in words (mouse liver; 40 μM Z-LLL co-administered, 2 and 4 weeks)",increase in rAAV transduction in the liver (mouse liver; 1 month post-infection)
"CC(C)C[C@@H](C=O)NC(=O)[C@H](CC(C)C)NC(=O)[C@H](CC(C)C)NC(=O)OCc1ccccc1 [Z-LLL, N-carbobenzoxyl-L-leucinyl-L-leucinyl-L-leucinal] (Cbz-Leu-Leu-Leu-aldehyde)",significantly increased rAAV transduction,No toxicity,enhances AAV-mediated gene transfer,7 fold
N-acetyl-L-leucinyl-L-leucinal-L-norleucinal [LLnL],significantly increased rAAV transduction,No toxicity,,
